Legend:
[1] = tested on: cHPK1 (87 amino acids of the C-terminal part of HPK1) displayed on phage; test: Surface plasmon resonance analysis (BIACORE), HIS-tagged Ig-tail peptides on NTA sensor chip, cHPK1 phagemids injected; format: binding, murine; details: for Elution after 100 s, Relative RUs: binding of cHPK1 phage (10^9 cfu in TBS) to immobilised HIS-tagged Ig-tail, value remaining after 100 s of elution; for Injection after 60 s, Relative RUs: binding of cHPK1 phage (10^9 cfu in TBS, injected 60 s) to immobilised HIS-tagged Ig-tail, 400 (±25) RUs peptide coupled, value taken 60 s after injection; for Elution after 100 s, %: relative RUs after 100 s elution, IgE values were set to 100%; for decrease of binding capacity / relative binding affinity for cHPK1 compared to the wild type IgE tail: after the elution step, IgE measurement set to 100%
From the text: Phage Display Based Cloning of Proteins Interacting with the Cytoplasmic Tail of Membrane Immunoglobulins* ROLAND GEISBERGERa , MARTIN PRLICa , GERTRUDE ACHATZ-STRAUSSBERGERa , IRIS OBERNDORFERa , ELKE LUGERb , MARINUS LAMERSc , RETO CRAMERId , ULRICH APPENZELLERd , JURGEN WIENANDSe , MICHAEL BREITENBACHa , FATIMA FERREIRAa and GERNOT ACHATZa, a Department of Genetics and General Biology, Hellbrunnerstrae 34, A-5020 Salzburg, Austria; b DRFZ, Schumannstrasse 21/22, D-10117, Germany; c MPI for Immunobiology, Stubeweg 51, D-79108 Freiburg, Germany; d SIAF, Obere Strasse 22, CH-7270 Davos, Switzerland; e Department of Biochemistry I, Universitaetsstrasse 25, D-33615 Bielefeld, Germany. The reduced quantity and quality of serum immunoglobulins (sIgs) in mutant mice expressing truncated cytoplasmic tails of IgE and IgG1 indicate an active role for the cytoplasmic domains of mIgG1 and mIgE. We used phage display technology to identify candidate proteins able to interact with the cytoplasmic tail of mIgE. […] The interaction of HPK1 with the cytoplasmic domains of membrane immunoglobulins indicate an active role of the tails as part of an isotype specific signal transduction, independent from the Iga/Igb heterodimers, and may represent a missing link to upstream regulatory elements of HPK1 activation. Keywords: Antigen receptor; Cytoplasmic tail; HPK1; Phage display; Surface plasmon resonance INTRODUCTION The B cell antigen receptor (Vitetta et al., 1980; Reth, 1992) plays a central role in almost all processes along the developmental pathway of B cells, i.e. the generation, maturation, survival and activation of B cells. B cell antigen receptors (BCR) exist as a complex of membrane immunoglobulins (mIgs) and at least two other transmem- brane polypeptides, called Ig-a and Ig-b, which connect the antigen receptor to the tyrosine phosphorylation pathways in the cell. In this complex, mIgs serve as isotype specific antigen receptors on the surface of B lymphocytes. All isotypes of mIgs can form a complex with Ig-a and Ig-b (Venkitaraman et al., 1991) indicating an involvement of all isotypes in the signal transduction pathway. The earliest detectable biochemical event that follows BCR-aggregation is increased activity of protein tyrosine kinases (PTKs) of the Syk- and Src-family, which phosphorylate distinct tyrosine residues within conserved sequences present on the cytoplasmic portions of Ig-a and Ig-b (Reth, 1992). Phosphorylation of Ig-a and Ig-b occurs on the tyrosine residues of immuno receptor tyrosine-based activation motif (ITAM) and on the non-ITAM tyrosine 204 of Ig-a (Engels et al., 2001). Once phosphorylated, ITAMs provide binding sites for SRC homology 2 (SH2) domains of the Src and Syk PTKs and the adaptor protein SLP-65 (Engels et al., 2001), thus initiating several signaling pathways, the most important of which are the PLC-g, the Ras and the PI3-kinase pathways (Reth and Wienands, 1997; Kurosaki, 1999). Various external stimuli such as cytokine binding, interaction with other cells as well as stress factors including osmotic shock, heat or ionizing irradiation can influence the signaling cascade initiated by BCR engagement and they can contribute to differential alteration of the pattern of gene expression. Obviously, between Ig subclasses, there should be no differences in the transduction of signals regulating the central features of the immune system (Nussenzweig, 1997) such as the control of allelic exclusion, early cellular transitions and in the function of the membrane- bound immunoglobulin as a receptor for antigen capture ISSN 1044-6672 print q 2002 Taylor & Francis Ltd DOI: 10.1080/1044667031000137584 *Presented at the Proceedings of the 4th Germinal Center Conference, Groningen, The Netherlands, June 2002. Corresponding author. Address: Institut fur Genetik, Hellbrunnerstrae 34, A-5020 Salzburg, Austria. Tel.: 43-662-8044-5764. Fax: 43-662- 8044-144. […]

[2] = tested on: cHPK1 (87 amino acids of the C-terminal part of HPK1) displayed on phage; test: Surface plasmon resonance analysis (BIACORE), IgE tail peptide covalently coupled to CM5 sensor chip, cHPK1 phagemids injected; format: binding, murine; details: CM5 sensor chip with covalently coupled IgE tail peptide (1683 RUs), random peptide as reference channel; 1 x 10^9 cHPK1 displaying phages injected over 200 s, washing with TBS
From the text: Phage Display Based Cloning of Proteins Interacting with the Cytoplasmic Tail of Membrane Immunoglobulins* ROLAND GEISBERGERa , MARTIN PRLICa , GERTRUDE ACHATZ-STRAUSSBERGERa , IRIS OBERNDORFERa , ELKE LUGERb , MARINUS LAMERSc , RETO CRAMERId , ULRICH APPENZELLERd , JURGEN WIENANDSe , MICHAEL BREITENBACHa , FATIMA FERREIRAa and GERNOT ACHATZa, a Department of Genetics and General Biology, Hellbrunnerstrae 34, A-5020 Salzburg, Austria; b DRFZ, Schumannstrasse 21/22, D-10117, Germany; c MPI for Immunobiology, Stubeweg 51, D-79108 Freiburg, Germany; d SIAF, Obere Strasse 22, CH-7270 Davos, Switzerland; e Department of Biochemistry I, Universitaetsstrasse 25, D-33615 Bielefeld, Germany. The reduced quantity and quality of serum immunoglobulins (sIgs) in mutant mice expressing truncated cytoplasmic tails of IgE and IgG1 indicate an active role for the cytoplasmic domains of mIgG1 and mIgE. We used phage display technology to identify candidate proteins able to interact with the cytoplasmic tail of mIgE. […] The interaction of HPK1 with the cytoplasmic domains of membrane immunoglobulins indicate an active role of the tails as part of an isotype specific signal transduction, independent from the Iga/Igb heterodimers, and may represent a missing link to upstream regulatory elements of HPK1 activation. […]

[3] = molecular target: HIS-tagged cytoplasmic tail of membrane IgE (28 amino acids) (mouse); test: SPR; BIACORE CM5 chip; IgE-tail peptide covalently coupled to Fc1 (1683 RUs), random peptide (1704 RUs) on Fc2 as reference; 1 x 10^9 cfu phagemids in TBS injected, then washing with TBS; relative response
[4] = molecular target: HIS-tag deficient random peptide; test: SPR; BIACORE NTA sensor chip; HIS-tagged Ig-tail peptides (150 nM in 0.01 M Hepes, 0.15 M NaCl, 50 mM EDTA, 0.005% surfactant P20) captured via the HIS-tag, 400 (+/-25) RUs each; 10^9 cfu cHPK1 phage in TBS injected 1 min, 100 s elution; relative RUs, IgE set to 100%
[5] = molecular target: HIS-tagged cytoplasmic tail of IgG1 (mouse); test: as above
[6] = molecular target: HIS-tagged cytoplasmic tail of IgG2a; test: as above
[7] = molecular target: HIS-tagged cytoplasmic tail of IgG2b; test: as above
[8] = molecular target: HIS-tagged cytoplasmic tail of IgG3; test: as above
[9] = molecular target: HIS-tagged cytoplasmic tail of IgM (KVK); test: as above
[10] = molecular target: HIS-tagged cytoplasmic tail of membrane IgE (28 amino acids) (mouse); test: as above
[11] = molecular target: HIS-tagged modified IgE cytoplasmic tail lacking the four amino acids T-F-Q-D (IgEDTFQD) (mouse); test: as above

| Substance | Elution after 100 s, Relative RUs [1] | Injection after 60 s, Relative RUs [1] | Elution after 100 s, % [1] | decrease of binding capacity / relative binding affinity for cHPK1 compared to the wild type IgE tail [1] | other results |
| --- | --- | --- | --- | --- | --- |
| HHHHHHKVKWVFSTPMQDTPQTFQDYA- NILQTRA [IgE, HIS-tagged synthetic peptide of the 28 amino acid long cytoplasmic tail of mIgE] | 177 RUs | 691 RUs |  |  | relative increase in affinity after the elution step [2]: 500 RUs |
| (6 H) KVKWIFSSVVQVKQTAIPDYRNMI- GQGA [IgG3, HIS-tagged synthetic cytoplasmic tail of IgG3] | 120 RUs | 744 RUs | 67% |  |  |
| (6 H) KVKWIFSSVVELKQTLVPEYKNMI- GQAP [IgG1, HIS-tagged synthetic cytoplasmic tail of IgG1] | 128 RUs | 819 RUs | 72% |  |  |
| (6 H) KVKWIFSSVVELKQTISPDYRNMI- GQGA [IgG2a, HIS-tagged synthetic cytoplasmic tail of IgG2a] | 68 RUs | 284 RUs | 38% | about 60% |  |
| cHPK1, 87 amino acids of the C-terminal part of murine hematopoietic progenitor kinase 1 (HPK1), displayed on phage (domain or fragment) |  |  |  |  | relative RUs after the elution step [3]: 500 RUs; relative RUs 60 s after injection [4]: 310 RU; % of the IgE tail's RUs after elution [5]: 72%; relative RUs 60 s after injection [5]: 819 RU; relative RUs 100 s after elution [5]: 128 RU; % of the IgE tail's RUs after elution [6]: 38%; relative RUs 60 s after injection [6]: 284 RU; relative RUs 100 s after elution [6]: 68 RU; % of the IgE tail's RUs after elution [7]: 41%; relative RUs 60 s after injection [7]: 276 RU; relative RUs 100 s after elution [7]: 72 RU; % of the IgE tail's RUs after elution [8]: 67%; relative RUs 60 s after injection [8]: 744 RU; relative RUs 100 s after elution [8]: 120 RU; relative RUs 60 s after injection [9]: 617 RU; relative RUs 60 s after injection [10]: 691 RU; relative RUs 100 s after elution [10]: 177 RU; % of the IgE tail's RUs after elution [11]: 53%; relative RUs 60 s after injection [11]: 563 RU; relative RUs 100 s after elution [11]: 94 RU |
| (6 H) KVKWIFSSVVELKQKISPDYRNMI- GQGA [IgG2b, HIS-tagged synthetic cytoplasmic tail of IgG2b] | 72 RUs | 276 RUs | 41% | about 60% |  |
| (6 H) KVKWVFSTPMQDTPQYA- NILQTRA [IgEDTFQD, HIS-tagged IgE cytoplasmic tail peptide lacking the TFQD amino acids] | 94 RUs | 563 RUs | 53% | 47% |  |
| SPHRCRIHPRPSKTMPTSSRPGH- RCDASTH [Random peptide, HIS-tag deficient random peptide used as control, reference compound] | ~0 RUs | 310 RUs | ~0% |  |  |

— article PMC2276102, “Phage Display Based Cloning of Proteins Interacting with the Cytoplasmic Tail of Membrane Immunoglobulins” (Developmental Immunology, 2002)
